Laboratory results taken from patent US20030129193A1 (priority 2001, published 2003).

Assays:
[1] = test system: HT29 human colorectal carcinoma; assay: Anti-tumor effects and tumor necrosis, HT29; type: in vivo, BALB/c nu/nu mice
[2] = test system: L540 human Hodgkin's tumors; assay: Anti-VCAM-1•tTF coaguligand, L540; type: in vivo, SCID mice
Method: Mice bearing subcutaneous L540 tumors were injected intravenously with anti-VCAM-1 antibody and, two hours later, the mice were exsanguinated. The tumor and normal organs were removed and frozen sections were prepared and examined immunohistochemically to determine the location of the antibody. […] No localization of anti-VCAM-1 antibody was found in testis or any normal organ except heart and lung.
Before coaguligand injection, tumors were viable, having a uniform morphology lacking regions of necrosis. […] Within four hours of coaguligand injection, 40-70% of blood vessels were thrombosed, despite the initial staining of only 20-30% of tumor blood vessels. The thrombosed vessels contained occlusive platelet aggregates, packed erythrocytes and fibrin. In several regions, the blood vessels had ruptured, spilling erythrocytes into the tumor interstitium.
The drug was administered i.v. 3 times at intervals of 4 days.

[3] = test system: L540rec human Hodgkin's lymphoma tumors; assay: Treatment studies, L540 Hodgkin's tumor necrosis; type: in vivo, SCID mice
Method: For in vivo studies, a metastasizing mouse model for human Hodgkin's lymphoma was used. 1×10^7 L540rec cells were injected subcutaneously into the right flank of SCID mice resulting in a subcutaneous tumor with lymph node metastases in the regional lymph node stations. Subcutanous tumors were measured with a caliper in three perpendicular directions a, b, and c, and volumes calculated according to the formula V=π/6×a×b×c.
Treatment was initiated when subcutaneous tumors reached a size of 150 to 300 μl. Reagents were administered into the lateral tail vein.
Mice were closely observed after treatment for clinical signs of toxicity and clinical status was documented at defined time points (5 minutes, 10 minutes, 15 minutes, 30 minutes, 1 hour, 2 hours, 24 hours, 48 hours, 72 hours). Blood samples were taken from the tail vein at 1 hour, 2 hours and 24 hours to measure TNFα blood levels. […]
Tissue samples harvested at the time of autopsy were fixed in 3% NBF (normal buffered formalin) and embedded in paraffin wax. […] Tissue sections were analyzed on a light microscope by two independent investigators and histological findings were documented. Tumor sections with necrotic areas were scanned with a GS-700 imaging densitometer (Biorad, Hercules, Calif.) and areas of necrosis were calculated as % of total section area. […]

tTF: extracellular domain of the mature Tissue Factor protein (amino acid 1-219)
growth discontinued after treatment ([1]; large (1200 mm^3) tumors, i.v.): about 7 days | necrosis in tumor sections ([1]; small HT29 tumors, single agents, 24 hours): some necrosis | effect on tumor growth ([2]; 0.3-0.4 cm^3 tumors, i.v. 3 times at intervals of 4 days): did not affect tumor growth | control reagents that caused thrombosis of tumor vessels ([2]; equivalent quantities): None | tumor tissue necrosis ([3]; 4 μg or 16 μg endotoxin-free tTF alone): 0% | % tumor necrosis ([3]; Table 2, tTF alone): 4%
